Data taken from patent US20220280538A1, “METHODS OF TREATING P53 MUTANT CANCERS USING OGDH INHIBITORS” (MEMORIAL SLOAN KETTERING CANCER CENTER, priority 2019, published 2022).

Key:
OGDH = biological target: T1, OGDH (Homo sapiens, UniProt Q02218); assay: OGDH enzyme inhibition in vitro; type: biochemical
T1 sequence (Q02218 41-1023): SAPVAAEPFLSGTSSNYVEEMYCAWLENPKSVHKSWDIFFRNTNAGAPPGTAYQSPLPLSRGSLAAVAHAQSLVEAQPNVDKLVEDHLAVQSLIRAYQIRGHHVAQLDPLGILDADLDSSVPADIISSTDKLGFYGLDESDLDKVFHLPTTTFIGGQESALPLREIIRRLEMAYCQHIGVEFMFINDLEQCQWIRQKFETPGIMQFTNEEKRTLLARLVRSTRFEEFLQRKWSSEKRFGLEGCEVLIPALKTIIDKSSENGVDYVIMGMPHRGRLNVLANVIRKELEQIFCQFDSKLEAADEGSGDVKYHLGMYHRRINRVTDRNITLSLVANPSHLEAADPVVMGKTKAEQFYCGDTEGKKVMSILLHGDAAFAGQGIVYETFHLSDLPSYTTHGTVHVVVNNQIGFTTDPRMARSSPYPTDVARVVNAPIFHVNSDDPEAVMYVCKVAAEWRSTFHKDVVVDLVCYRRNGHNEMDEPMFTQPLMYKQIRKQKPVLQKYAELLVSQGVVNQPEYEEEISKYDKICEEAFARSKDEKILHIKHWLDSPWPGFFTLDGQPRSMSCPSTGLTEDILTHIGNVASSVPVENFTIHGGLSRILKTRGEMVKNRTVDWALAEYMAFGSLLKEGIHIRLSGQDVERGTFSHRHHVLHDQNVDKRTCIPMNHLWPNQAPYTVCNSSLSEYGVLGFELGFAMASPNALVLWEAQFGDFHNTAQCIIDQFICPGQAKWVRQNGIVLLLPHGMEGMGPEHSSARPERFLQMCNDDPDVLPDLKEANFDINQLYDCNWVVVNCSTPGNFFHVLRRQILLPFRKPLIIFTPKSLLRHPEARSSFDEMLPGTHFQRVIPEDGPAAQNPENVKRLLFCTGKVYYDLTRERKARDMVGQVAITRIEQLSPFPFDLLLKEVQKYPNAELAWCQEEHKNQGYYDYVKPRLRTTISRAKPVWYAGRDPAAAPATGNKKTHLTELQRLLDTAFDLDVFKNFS
Excerpt: It is worth noting that there are ongoing clinical trials in hematologic malignancies including AML for a compound designated CPI-613. This drug is an analog of lipoate, a catalytic co-factor and modulator of several metabolic enzymes, including the TCA enzymes pyruvate dehydrogenase (PDH) and OGDH. However, the compound is thought to elicit its anti-cancer effects through an indirect mechanism and may also target additional lipoate-dependent enzymes involved in amino acid catabolism. […] Instead development of specific inhibitors of OGDH was initiated for the purpose of exploiting a known metabolic phenotype mimicking the wt-p53 tumor suppressive effect. These concepts and compounds will be tested in our models of CK AML.

[1] = test system: Nras^G12D; Mll-Af9 murine AML cells; assay: aKG:succinate ratio in AML cells by GC/MS; type: cell-based; conditions: FIG. 20F
KP^sh cells [2] = assay: RNA-Seq / GSEA / qRT-PCR gene expression in KP^sh cells; type: cell-based, mouse
Method: qRT-PCR. Total RNA was extracted in triplicate wells from indicated conditions using the RNAeasy Mini Kit (Qiagen) according to manufacturer protocols. cDNA was synthesized from 1 μg of RNA (AffinityScript QPCR cDNA synthesis kit, Agilent) and QPCR amplification performed with SYBR green (Perfecta SYBR green fast mix, QuantaBio) using the following primer pairs on a ViiA 7 Real-Time PCR System (Life technologies). 36B4 was utilized as endogenous control.
RNA-Seq. Total RNA was isolated from duplicate wells of indicated conditions. RNA integrity and concentration were assessed using a BioAnalyzer (Agilent). RNA sequencing libraries were generated using Illumina mRNA TruSeq kit with dual index barcoding. […] Approximately 8 million paired-end 76 bp reads were sequenced per replicate on a HiSeq 2500 instrument on RAPID mode. […] Genome wide transcript counting was performed by HTSeq or featureCounts to generate FPKM matrix. […] Differential expression analysis was performed with DESeq2 package in R^50. Genes with a real adjusted p value were used for downstream analyses.
Gene Set Enrichment Analysis. Gene set enrichment analysis (GSEA) was performed using ranked lists. […] GSEAPreranked version 4 was used with default parameters and data were exported and graphed in GraphPad Prism version 7.

dox-treated KP^sh cells = assay: 5hmC flow cytometry in KP^sh cells; type: cell-based, mouse; conditions: KP^sh-2 cells, 4 mM DM-αKG for 72 h
Method: (§1) BrdU, Annexin-V, 5hmC Flow Cytometry Assays. BrdU (BD Pharmigen) and Annexin V (BDPharmigen) analysis was performed in triplicate in cells plated in 6-well dishes under indicated conditions via manufacturers' protocols. 5hmC flow was performed in triplicate in cells plated in 6-well dishes. Briefly, adherent cells were washed with PBS, collected by trypsinization, and fixed on ice for 15 minutes in fixation/permeabilization solution (BD Cat #554714). The cells were then washed with 1× perm/wash buffer (BD Cat #554714) supplemented with 0.1% Triton X, treated with 1× perm/wash buffer supplemented with 0.5% Triton X and 0.5% Nonidet P-40 substitute for 30 minutes. Then, the cells were washed with 1× perm/wash buffer supplemented with 0.1% Triton X, incubated overnight at 4° C. with rabbit anti-5hmC antibody diluted 1:100 in 1× perm/wash buffer supplemented with 0.1% Triton X, washed with 1× perm/wash buffer supplemented with 0.1% Triton X, and incubated for 1 hour at room temperature with goat anti-rabbit Alexa Fluor 700 diluted 1:200 in 1× perm/wash buffer supplemented with 0.1% Triton X. The cells were then washed with 1× perm/wash buffer supplemented with 0.1% Triton X, resuspended in 1× perm/wash buffer, and analyzed.

KP^sh cells [3] = assay: ATAC-Seq chromatin accessibility in KP^sh cells; type: cell-based, mouse; conditions: KP^sh cells with dox, cell-permeable αKG
Method: Epigenomic Analysis. 1×10^6 KP^sh cells were washed with PBS and plated on and off dox 8 days (−D8) before collecting cells for ATAC-Seq analysis. Cells maintained on dox and off dox were passaged every 48 h. Three days prior to harvest, dimethyl-α-ketoglutarate (DM-αKG) was added to cells grown on dox, while DMSO was added to cells maintained on dox and cells maintained off dox. All cell groups (On dox, DMSO; On dox, DM-αKG; Off dox, DMSO) were split into 6-well plates in duplicate in fresh media containing dox, DM-αKG, and DMSO as indicated two days prior to harvest. This medium was refreshed 24 h before collection. […] Barcoded libraries were pooled (2-4 samples/lane) and run on an Illumina HiSeq 2500 sequencer using 50 bp paired-end reads.
For data analysis, quality and adapter filtering was applied to raw reads using ‘trim_galore’ before aligning to mouse assembly mm9 with bowtie2 using the default parameters. The Picard tool MarkDuplicates was used to remove reads with the same start site and orientation. The BEDTools suite was used to create read density profiles. Enriched regions were discovered using MACS2 and scored against matched input libraries (fold change >2 and FDR-adjusted p-value <0.1). […] ChIP-seq data were processed in the same way as ATAC-seq data, except read density profiles for ChIP included a read extension equivalent to the average library fragment size. […]

[4] = test system: p53 mutant human PDAC cells; assay: 5hmC flow cytometry in human PDAC cells; type: cell-based; conditions: 8988 and Panel cells, 4 mM DM-αKG for 72 h
Method: as §1

KP^sh cells [5] = assay: αKG/succinate ratio in KP^sh PDAC cells (metabolite profiling); type: cell-based, mouse; conditions: KP^sh cells on dox; 3 μM etoposide or 25 nM trametinib, 48 or 96 hours
Method: Cell Lines and Cell Culture Treatments. KP^sh-1-3 cells were derived from PDAC that developed in three separate Pdx1-Cre; LSL-KrasG12D; Col1a1-TRE-shp53-shRenilla; Rosa26-CAGs-LSL-rtTA-IRES-mKate2 mice generated by blastocyst injection and maintained on doxycycline (dox) chow (625 mg/kg, Harlan Laboratories) 5 days from birth until sacrifice. […] KP^floxRIK cells were derived from PDAC that developed in a p48-Cre; LSL-KrasG12D; p53^flox/+; Rosa26-CAGs-LSL-rtTA-IRES-mKate2 mouse generated by blastocyst injection. KP^R172HRIK cells were derived from tumors that developed in a p48Cre^ER; LSL-KrasG12D; LSL-p53^R172H/+; Rosa26-CAGs-LSL-rtTA-IRES-mKate2 mouse generated by blastocyst injection. […]
Metabolite Profiling. […] Samples were analyzed using an Agilent 7890A GC coupled to Agilent 5975C mass selective detector. […] Peaks representing compounds of interest were extracted and integrated using MassHunter software (Agilent Technologies) and peak area was normalized to the internal standard (d5-2HG) peak area and protein content of duplicate samples as determined by BCA protein assay (Thermo Scientific). Ions used for quantification of metabolite levels are as follows: d5-2HG m/z 354; citrate, m/z 465; αKG, m/z 304; aspartate, m/z 334; fumarate, m/z 245; malate, m/z 335 and succinate, m/z 247. […]

KP^sh cells [6] = assay: Cell cycle arrest and senescence (BrdU, SA-β-gal) in KP^sh PDAC cells; type: cell-based, mouse; conditions: KP^sh cells on dox; 3 μM etoposide or 25 nM trametinib, 48 or 96 hours
Method: Cell Lines and Cell Culture Treatments. KP^sh-1-3 cells were derived from PDAC that developed in three separate Pdx1-Cre; LSL-KrasG12D; Col1a1-TRE-shp53-shRenilla; Rosa26-CAGs-LSL-rtTA-IRES-mKate2 mice generated by blastocyst injection and maintained on doxycycline (dox) chow (625 mg/kg, Harlan Laboratories) 5 days from birth until sacrifice. […] Guide strands for Col1a1 targeted tandem shRNAs were: p53, [sequence] (SEQ ID NO: 1) and Renilla, [sequence] (SEQ ID NO: 2). […] Tumors were diced with scissors and resulting pieces sequentially digested with 1 mg/ml collagenase V (Sigma) diluted in Hanks Buffered saline solution followed by 0.25% Trypsin. Digested suspensions were washed with complete DMEM (DMEM, 10% FBS (GIBCO), 1× Penicillin/Streptomycin) and propagated in complete DMEM on collagen-coated plates (PurCol, Advanced Biomatrix, 0.1 mg/ml). KP^sh cells were grown in complete DMEM supplemented with 1 μg/ml doxycycline.
Senescence Associated Beta-Galactosidase (SA-β-Gal) Assay. SA-β-gal activity was detected as described previously. […] At least 200 cells were analyzed from triplicate wells at all conditions. […]

Structure (SMILES): O=C(O)CCCCC(CCSCc1ccccc1)SCc1ccccc1 (centres unmarked) [CPI-613]
- specificity for OGDH (OGDH): lacks specificity for OGDH
- concentration at which OGDH is inhibited (OGDH; in vitro): > 200 µM
- cellular ratio of αKG:succinate [1]: not

Structure (SMILES): CC(=O)[O-].[Na+] [acetate, sodium acetate]
- induction of pre-malignant associated genes co-regulated by p53 and αKG (qRT-PCR) (KP^sh cells [2]; 4 mM, 72 h): not

Structure (SMILES): COC(=O)CCC(=O)C(=O)OC [cell-permeable αKG, dimethyl-α-ketoglutarate]
- expression of genes enriched in malignant PDAC cells (GSEA) (KP^sh cells [2]): concomitant downregulation of genes enriched in malignant PDAC cells
- expression of genes of premalignant PanIN lesions (GSEA) (KP^sh cells [2]): robust increase in expression of genes selectively expressed in cells derived from premalignant PanIN lesions
- cellular 5hmC (dox-treated KP^sh cells): induced cellular 5hmC
- chromatin accessibility (ATAC-Seq) (KP^sh cells [3]): global increase in chromatin accessibility
- cellular 5hmC [4]: induced cellular 5hmC

Structure (SMILES): COc1cc([C@@H]2c3cc4c(cc3[C@@H](O[C@@H]3O[C@@H]5CO[C@@H](C)O[C@H]5[C@H](O)[C@H]3O)[C@H]3COC(=O)[C@H]23)OCO4)cc(OC)c1O [etoposide]
- αKG/succinate ratio (KP^sh cells [5]): neither altered the αKG/succinate ratio
- cell cycle arrest and senescence (KP^sh cells [6]): triggered cell cycle arrest and senescence
